According to patent publication US20130209439A1, “INHIBITORS OF PDE4 BINDING TO HSP20” (THE UNIVERSITY COURT OF THE UNIVERSITY OF GLASGOW, priority 2010, published 2013):

Columns and labels:
[1] = test system: cAMP in the vicinity of HSP20; assay: cAMP FRET with cytosolic and HSP20-targeted reporters in cardiac myocytes; type: cell-based, rat
Description: FIG. 5. Measurement of relative cAMP concentration in the vicinity of HSP20 using targeted cAMP FRET probes. A, Representative traces showing FRET ratios that indicate relative cAMP concentrations measured by cytosolic and HSP20 targeted cAMP reporter constructs. B, Upper panel, graphical depiction of maximum FRET ratios achieved using both cytosolic and HSP20-targeted probes following treatment with isoprenaline (Iso), rolipram (Roli) and IBMX. Lower panel, images of the localisation of cytosolic and HSP20-targeted cAMP reporter constructs.
The Hsp20-targeted cAMP FRET probe was generated by cloning the Hsp20 open reading frame, excluding the stop codon, immediately 5′ to the EPACG-based FRET sensor^55. Hsp20 open reading frame was amplified from the Ultimate™ ORF clone IOH57317 (Invitrogen) using the following primers to incorporate HindIII restriction sites at both 5′ and 3′ ends: Forward 5′-gcacaagctt[…]-3′ (SEQ ID NO: 70) Reverse 5′-gcacaagctt[…]-3′ (SEQ ID NO: 71). […]
Primary cultures of ventricular cardiac myocytes were prepared from 1-3 day old Sprague-Dawley rats, as described above. […] FRET changes were measured following background subtraction by dividing the intensity of emissions at 480 nm and 545 nm, following excitation at 440 nm. Data are expressed as dR/R0, where R=fret ratio at time t (sec), R0=fret ratio at time zero, and dR=R−R0. […]

[2] = test system: Phospho-Ser16 HSP20 in HEKB2 cells; assay: Ser16 phosphorylation of HSP20 in HEKB2 cells overexpressing HSP20 (Western blot); type: cell-based; conditions: HEKB2 cells
Protocol: FIG. 1. The phosphorylation of HSP20 at Ser16 is modulated by PDE4 activity in HEKB2 cells. A, HEKB2 cells overexpressing HSP20 or HSP20 ser16-Ala mutant were treated with isoprenaline for indicated times. Cellular lysates were blotted for HSP20 and Phospho-Ser16 HSP20. B, HEKB2 cells overexpressing HSP20 were treated with isoprenaline for indicated times, Cellular lysates were blotted for HSP20 and Phospho-Ser16 HSP20. C, HEKB2 cells overexpressing HSP20 were treated with isoprenaline for indicated times following pre-treatment with the PDE4-specific inhibitor, rolipram. Cellular lysates were blotted for HSP20 and Phospho-Ser16 HSP20. D, Quantifications of data from FIGS. 1B and 1C (n=4). * Denotes significance at a level p<0.05 E, Lysate from untransfected HEKB2 cells was blotted for HSP20 and Phospho-Ser16 HSP20.
(§1) HEK293B2 cells are a stable cell line overexpressing the GFP-tagged β2AR were cultured as previously described^48. HEK293B2 cells were transiently transfected with wild type HSP20 or a phosphorylation defective HSP20 (S16A) or a phosphorylation mimic HSP20 (S16D). Neonatal cardiac myocytes were prepared and cultured as previously described^30. Cell lysis, immunopurification and western blotting was done as described before by us in some detail^48. Briefly, HEK 293 cells were transiently transfected with wild-type HSP20 by using Polyfect Transfection Reagent (Qiagen). Transfected HEK 293 cells were treated with 10 μM bs906 or 10 μM control peptide for 0, 15, 30, 60 and 120 min. Control and treated transfected HEK 293 cells were then washed thrice with ice cold PBS (phosphate buffered saline) before cellular lysates were prepared. Cellular lysates were prepared in lysis buffer containing 25 mM Hepes, pH 7.5, 2.5 mM EDTA, 50 mM NaCl, 50 mM NaF, […], 10% (v/v) glycerol, 1% (v/v) Triton X-100 and Complete™ EDTA-free protease inhibitor cocktail tablets (Roche). Protein concentration of lysates were determined using the Bradford assay and all samples were equalised for protein concentration. Proteins were separated by SOS/PAGE (4-12% Bis-Tris gels) and transferred onto nitrocellulose membranes for Western blotting. Antibodies were used to detect phospho-proteins and native proteins in lysates from control and treated cells
In contrast to this, when we transfected these cells with a phospho-null mutant form, Ser16Ala-Hsp20, then no such change was observed (FIG. 1A). In order to evaluate whether PDE4 activity played a role in regulating this phosphorylation process in Hsp20-transfected HEKB2 cells, cells that had either been pre-treated or not with the PDE4 selective inhibitor rolipram were subsequently challenged with isoprenaline (1 μM) (FIGS. 1B and C). […] Endogenous levels of phospho-HSP20 or HSP20 were not detectable in HEKB2 cells (FIG. 1E).

[3] = test system: Phospho-Ser16 HSP20 in neonatal cardiac myocytes; assay: Ser16 phosphorylation of endogenous HSP20 in neonatal cardiac myocytes (Western blot); type: cell-based, rat
Protocol: FIG. 2. The phosphorylation of HSP20 at Ser16 is modulated by PDE4 activity in cardiac myocytes. A, Neonatal cardiac myocytes were treated with isoprenaline for indicated times with or without pre-treatment with the PDE4-specific inhibitor, rolipram. Cellular lysates were blotted for HSP20 and Phospho-Ser16 HSP20. B, Quantifications of data from FIG. 2A (n=3). * Denotes significance at a level p<0.05 over iso treatment.
as §1
To determine whether inhibition of PDE4 activity had similar effects on endogenous phospho-HSP20 levels in heart cells, similar experiments were undertaken using neonatal cardiomyocytes (FIG. 2).

[4] = test system: pS16-Hsp20 in SH-SY5Y cells; assay: Cell based Hsp20-PDE4D disruptor assay, nucleofected SH-SY5Y cells, pS16-Hsp20 Western blot; design: species or system human; conditions: SH-SY5Y cells nucleofected with 500 μM peptide, 2 hours
Protocol: FIG. 9. Disrupter induced HSP20 phosphorylation SH-SY5Y cells nucleofected with 500 μM of each peptide and incubated for 2 hours prior to harvesting. Each assay was blotted for Hsp20, pS16-Hsp20 and tubulin. Changes in levels of phospho-Hsp20 relative to DMSO only controls were quantified through densitometry analysis and each assay was normalised to α-tubulin loading control. The results are the average of three separate experiments and error bars represent SEM. *=p<0.05, **=p<0.01 compared to DMSO only controls (Student-T-test)
SDS-PAGE analysis was done on NuPage® pre-cast gels X-cell apparatus (Invitrogen, Paisley) using MES-SDS running buffer, Samples were reduced in Laemmli 2× loading buffer (4% SOS) with 5% β-mercaptoethanol. For Western Blotting (WB) analysis, samples were transferred using NuPage® X-cell blotting module onto a nitrocellulose membrane. Membranes were blocked using 5% Milk in 1×TBST (w/v). Antibodies were incubated in 1% milk in 1×TBST (w/v) for either 1 hour at room temperature or overnight at 4° C. Signals were detected using enhanced chemiluminescence system (Pierce) and developed on an X-omat film developer. Subsequent densitometry analysis was carried out using Quantity One (Bio-Rad).
SH-SY5Y cells (ATCC-CRL-2266) were grown in Dulbecco's Modified Eagle's Medium (DMEM) and F12-Ham's at a 1:1 ratio, media was supplemented with 10% (v/v) fetal bovine serum (FBS), 1% (v/v) L-Glutamine, 1% (v/v) Minimum Essential Medium—With Non-essential Amino Acids (MEM-NAA) and 1% (v/v) Pen/strep. Cells were cultured in a humidified, 5% (v/v) CO2, 37° C. incubator.
SH-SY5Y cells were nucleofected using Cell Line Nucleofector® Kit-V in accordance with manufacturers protocol (Amaxa Biosystems). Setting A-23 on the Nucleofector I device was used which increases cell viability. For each assay, 500 μM of disrupter peptide was incubated with 100 μl of nucleofection solution containing approximately 2×10^6 cells. After nucleofection cells were re-suspended in 500 μl of culture media before being transferred to a 6 well plate with a final volume of 2 ml per well. Cells were incubated for 2 hours prior to harvesting with […] containing protease and phosphatase inhibitors (Roche).
As the cell permeability of the peptides is unknown we used an electroporation technique to introduce the peptides into the SH-SY5Y cells. The Amaxa cell-line specific Nucleofector Kit V (Lonza) was used to transfect the peptides into the cells. […] Each assay used a final concentration of 500 μM of peptide in nucleofector solution containing approximately 2×10^6 SH-SY5Y cells. As peptides were dissolved in 100% DMSO, control transfections with DMSO only were used to compare any changes in phospho-Hsp20 levels. After each transfection the solution was reconstituted in culture media and incubated for 2 hours to allow for cell adhesion prior to the harvesting of viable cells.

His-Hsp20 = biological target: T1, His-Hsp20 (Homo sapiens, UniProt O14558); assay: SPOT peptide array overlaid with His-Hsp20; type: binding; conditions: overlay with 10 μg/ml purified His-Hsp20
T1 construct: made in house; host or cells: E. coli BL21
T1 sequence (O14558 1-160): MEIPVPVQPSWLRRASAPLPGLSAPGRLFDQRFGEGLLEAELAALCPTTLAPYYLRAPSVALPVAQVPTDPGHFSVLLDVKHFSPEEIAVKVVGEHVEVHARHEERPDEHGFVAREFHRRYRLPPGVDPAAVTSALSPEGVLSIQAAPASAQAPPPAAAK
Protocol: A variety of peptides were generated and SPOT-synthesised onto slides which were then overlaid with 10 μg/ml of purified His-Hsp20. Interaction with peptides and Hsp20 was evaluated by probing slides with anti-His or Hsp20 antibodies and analysed using enhanced chemi-luminescence techniques, Negative controls used anti-His antibody only with no overlay of His-Hsp20 protein (data not shown). Positive interaction domains were then subjected to further rounds of truncations and key endogenous residues were substituted for non-native residues to ascertain what effects this would have in the binding of Hsp20.
This was done as described in detail elsewhere^41.
PDE4 isoform localisation invariably depends on protein-protein interactions, with PDE4s shown to associate with a diverse group of interacting partners such as RACK1^32, 36, βarrestin^36, β1-Ar^37, DISC1^38, the p75 neurotrophin receptor^39 and the cardiac IKs potassium channel^40. One method that has been pivotal in mapping the sites of association between PDE4s and their binding partners is peptide array^36. SPOT immobilised peptide libraries of PDE4 sequences have been utilised to accurately predict binding domains for partner proteins. Here we have employed this novel technique to define the HSP20 binding site within the sequence of PDE4D5, an isoform that is endogenously expressed in cardiomyocytes. Peptide arrays of overlapping 25-mer peptides, sequentially shifted by 5 amino acids and spanning the entire sequence of PDE4D5, were incubated with purified recombinant HSP20-6his. Dark spots represent positive areas of HSP20 interaction whereas clear spots are negative for the association (FIG. 4A). While no signal was observed when the arrays were overlaid with BSA, positive signals were obtained for 25mer peptides 93 to 96 following HSP20-6His overlay. Peptides 93 to 96 span the amino acid sequence Y^461-K^500 within the conserved catalytic domain of PDE4D5 (FIG. 4A: middle panels). […]

| Compound | cAMP FRET response, HSP20-targeted reporter compared with cytosolic probe [1] | pS16-Hsp20 levels relative to DMSO only controls [4] | binding of Hsp20 to peptide on array (His-Hsp20) | other results |
| --- | --- | --- | --- | --- |
| CC(C)Cn1c(=O)n(C)c(=O)c2[nH]cnc21 [IBMX] | identical maximal response | – | – | – |
| COc1ccc(C2CNC(=O)C2)cc1OC1CCCC1 (stereo not drawn) [rolipram] | clearly greater in the HSP20 targeted reporter | – | – | isoprenaline-stimulated HSP20 phosphorylation ([2]; rolipram pre-treatment then isoprenaline 1 μM): increased isoprenaline-stimulated HSP20 phosphorylation; phospho-HSP20 levels compared to resting cells ([2]; rolipram treatment alone): clear increase in phospho-HSP20 levels; phospho-HSP20 levels ([3]; cardiomyocytes, PDE4 inhibition alone): marked increase in phospho-HSP20 levels; isoprenaline-induced increase in endogenous phospho-HSP20 levels ([3]; neonatal cardiomyocytes, rolipram pre-treatment): markedly augmented |
| Ac-FQNLTR-NH2 [Peptide 5] | – | inability | shown to bind HSP20 | – |
| Ac-GFK-NH2 (Ac-Gly-Phe-Lys-NH2) [Peptide 17] | – | indistinguishable from DMSO only controls | shortest size | – |
| Ac-KLL-NH2 (Ac-Lys-Leu-Leu-NH2) [Peptide 10] | – | indistinguishable from DMSO only controls | shortest size | – |
